Here are results for 13 compounds from patent US12180193B2, “Accelerating fibrosarcoma protein degrading compounds and associated methods of use” (Arvinas Operations, Inc., priority 2020, dated 2024).

Assay [1] has as its target T1, BRAF V600E (Homo sapiens, UniProt P15056, V600E).
T1 construct: expressed in transfected cells
Description: Cellular assay of target protein degradation, T-Rex 293 cells stably transfected with HA-BRAF_V600E (HA immunofluorescence, high content imaging). It counts as cell-based. The procedure, abridged:
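HA immunofluorescence on fixed cells, imaged by high-content reader, measured loss of HA-BRAF V600E in stably transfected T-Rex 293 cells induced with 1 ng/mL doxycycline. Compounds were applied for 24 h at 37 °C (final 0.1 nM–1 μM, 0.1% DMSO); DC50 and Dmax (% of control) were reported.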

Assay [2] deals with T2, BRAF G466V (Homo sapiens, UniProt P15056, G466V).
T2 construct: expressed in transfected cells
T2 sequence (P15056 whole entry G466V): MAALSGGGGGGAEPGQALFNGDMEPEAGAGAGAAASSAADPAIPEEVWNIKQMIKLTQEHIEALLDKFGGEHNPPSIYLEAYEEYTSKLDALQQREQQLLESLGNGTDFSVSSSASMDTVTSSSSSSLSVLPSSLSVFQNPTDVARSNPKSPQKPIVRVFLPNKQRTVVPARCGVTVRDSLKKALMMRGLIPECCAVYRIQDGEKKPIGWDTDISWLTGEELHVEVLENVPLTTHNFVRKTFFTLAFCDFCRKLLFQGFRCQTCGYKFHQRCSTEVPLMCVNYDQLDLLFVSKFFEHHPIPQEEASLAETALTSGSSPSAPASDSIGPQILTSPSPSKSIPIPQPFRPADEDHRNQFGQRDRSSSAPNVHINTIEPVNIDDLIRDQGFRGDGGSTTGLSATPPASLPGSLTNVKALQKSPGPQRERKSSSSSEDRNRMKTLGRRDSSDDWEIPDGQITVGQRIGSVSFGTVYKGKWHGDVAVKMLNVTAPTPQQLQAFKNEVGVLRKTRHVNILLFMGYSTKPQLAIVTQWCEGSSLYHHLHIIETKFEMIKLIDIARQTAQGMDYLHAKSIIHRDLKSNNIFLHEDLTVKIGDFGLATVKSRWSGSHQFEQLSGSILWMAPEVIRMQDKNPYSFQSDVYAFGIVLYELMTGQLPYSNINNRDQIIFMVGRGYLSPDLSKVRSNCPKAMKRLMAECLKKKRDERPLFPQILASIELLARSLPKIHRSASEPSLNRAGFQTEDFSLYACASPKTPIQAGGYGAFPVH
Description: Cellular assay of target protein degradation, T-Rex 293 cells stably transfected with HA-BRAF G466V (HA immunofluorescence, high content imaging). The format is cell-based. In short, it runs like this:
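HA-BRAF G466V levels were read by HA immunofluorescence and high-content imaging after 24 h compound exposure (final 30 nM–3 pM, 0.1% DMSO, 37 °C). Expression was induced with 0.75 ng/mL doxycycline. Outputs: half-maximal degradation concentration (DC50) and maximal degradation (Dmax) relative to control.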

Where [3] appears, read: half maximal degradation, T-Rex 293 HA-BRAF V600E; read-out: BRaf V600E DC50.
[4] abbreviates: maximum degradation observed, T-Rex 293 HA-BRAF V600E.
The mark [5] stands for this setting: half maximal degradation, T-Rex 293 HA-BRAF G466V; read-out: BRaf G466V DC50.
Where [6] appears, read: maximum degradation observed, T-Rex 293 HA-BRAF G466V.

Read-outs that look alike come from different tables or passages of the source. A value given as a limit tells only on which side of the number the result lay.

T1 sequence (P15056 whole entry V600E): as the sequence (P15056 whole entry G466V) above, with V466G, V600E counted along it

A word on the DC50: it is the concentration at which degradation of the target reaches its halfway point. Broadly, the Dmax is the greatest extent of degradation seen. A higher Dmax goes with a fuller loss of target. As to `O=C1CCC(N2Cc3cc(N4CCC(CN5CCC(C6(c7ccc(-c8cnc9[nH]cc(C(=O)c%10c(F)ccc(NS(=O)(=O)N%11CC[C@@H](F)C%11)c%10F)c9c8)cc7)CC6)CC5)CC4)ccc3C2=O)C(=O)N1` (stereo partly drawn) [Compound 174, (3R)-N-{3-[5-(4-{1-[1-({1-[2-(2,6-dioxopiperidin-3-yl)-1-oxo-2,3-dihydro-1H-isoindol-5-yl]piperidin-4-yl}methyl)piperidin-4-yl]cyclopropyl}phenyl)-1H-pyrrolo[2,3-b]pyridine-3-carbonyl]-2,4-difluorophenyl}-3-fluoropyrrolidine-1-sulfonamide], the DC50 lay within 5 to 50 nM in assay [1] (setting [3]) and 1 to 10 nM in assay [2] (setting [5]). Besides, the Dmax was < 35% in assay [1] (setting [4]) and > 70% in assay [2] (setting [6]).
The matching figures for `COc1cc(C2CCN(CC3CCN(c4ncc(-c5cnc6[nH]cc(C(=O)c7c(F)ccc(NS(=O)(=O)N8CC[C@@H](F)C8)c7F)c6c5)cn4)CC3)CC2)cc2c1C(=O)N(C1CCC(=O)NC1=O)C2` (stereo partly drawn) [Compound 175, (3R)-N-[3-(5-{2-[4-({4-[2-(2,6-dioxopiperidin-3-yl)-7-methoxy-1-oxo-2,3-dihydro-1H-isoindol-5-yl]piperidin-1-yl}methyl)piperidin-1-yl]pyrimidin-5-yl}-1H-pyrrolo[2,3-b]pyridine-3-carbonyl)-2,4-difluorophenyl]-3-fluoropyrrolidine-1-sulfonamide]: 5 to 50 nM, < 1 nM, 35 to 70% and > 70%.
For `CC1(c2ccc(C3CCN(CC4CCN(c5ccc(-c6cnc7[nH]cc(C(=O)c8c(F)ccc(NS(=O)(=O)N9CC[C@@H](F)C9)c8F)c7c6)cc5)CC4)CC3)cc2F)CCC(=O)NC1=O` (stereo partly drawn) [Compound 176, (3R)-N-[2,4-difluoro-3-(5-{4-[4-({4-[3-fluoro-4-(3-methyl-2,6-dioxopiperidin-3-yl)phenyl]piperidin-1-yl}methyl)piperidin-1-yl]phenyl}-1H-pyrrolo[2,3-b]pyridine-3-carbonyl)phenyl]-3-fluoropyrrolidine-1-sulfonamide] the same measures were 5 to 50 nM, 1 to 10 nM, < 35% and 35 to 70%.
`O=C1CCC(N2Cc3cc(C4CCN(CC5CCN(c6ccc(-c7cnc8[nH]cc(C(=O)c9c(F)ccc(NS(=O)(=O)N%10CCCC%10)c9F)c8c7)cc6)CC5)CC4)ccc3C2=O)C(=O)N1` (stereo not drawn) [Compound 177, N-[3-(5-{4-[4-({4-[2-(2,6-dioxopiperidin-3-yl)-1-oxo-2,3-dihydro-1H-isoindol-5-yl]piperidin-1-yl}methyl)piperidin-1-yl]phenyl}-1H-pyrrolo[2,3-b]pyridine-3-carbonyl)-2,4-difluorophenyl]pyrrolidine-1-sulfonamide]: the DC50 is < 5 nM in assay [1] (setting [3]) and < 1 nM in assay [2] (setting [5]). For the same compound, the figures for the greatest degradation seen (Dmax) in assay [1] (setting [4]) and in assay [2] (setting [6]) were 35 to 70% and > 70%, respectively.
Consider `O=C1CCC(c2ccc(C3CCN(CCC4CCN(c5ccc(-c6cnc7[nH]cc(C(=O)c8c(F)ccc(NS(=O)(=O)N9CC[C@@H](F)C9)c8F)c7c6)cc5)CC4)CC3)cc2F)C(=O)N1` (stereo partly drawn) [Compound 178, (3R)-N-[3-(5-{4-[4-(2-{4-[4-(2,6-dioxopiperidin-3-yl)-3-fluorophenyl]piperidin-1-yl}ethyl)piperidin-1-yl]phenyl}-1H-pyrrolo[2,3-b]pyridine-3-carbonyl)-2,4-difluorophenyl]-3-fluoropyrrolidine-1-sulfonamide], for which the half-maximal degradation concentration (DC50) in assay [1] (setting [3]) was in the range of 5 to 50 nM; in assay [2] (setting [5]), 1 to 10 nM. Besides, the greatest degradation seen (Dmax) in assay [1] (setting [4]) is < 35%; in assay [2] (setting [6]) it was > 70%.
The matching figures for `O=C1CCC(N2Cc3cc(C4CCN(C[C@@H]5[C@H]6CN(c7ccc(-c8cnc9[nH]cc(C(=O)c%10c(F)ccc(NS(=O)(=O)N%11CC[C@@H](F)C%11)c%10F)c9c8)cc7)C[C@@H]56)CC4)ccc3C2=O)C(=O)N1` (stereo partly drawn) [Compound 179, (3R)-N-[3-(5-{4-[(1R,5S,6S)-6-({4-[2-(2,6-dioxopiperidin-3-yl)-1-oxo-2,3-dihydro-1H-isoindol-5-yl]piperidin-1-yl}methyl)-3-azabicyclo[3.1.0]hexan-3-yl]phenyl}-1H-pyrrolo[2,3-b]pyridine-3-carbonyl)-2,4-difluorophenyl]-3-fluoropyrrolidine-1-sulfonamide]: 5 to 50 nM, 1 to 10 nM, 35 to 70% and > 70%.
The matching figures for `O=C1CCC(N2Cc3cc(C4CCN(C[C@@H]5C[C@H]6CC[C@@H](C5)N6c5ccc(-c6cnc7[nH]cc(C(=O)c8c(F)ccc(NS(=O)(=O)N9CC[C@@H](F)C9)c8F)c7c6)cc5)CC4)ccc3C2=O)C(=O)N1` (stereo partly drawn) [Compound 180, (3R)-N-[3-(5-{4-[(1R,3S,5S)-3-({4-[2-(2,6-dioxopiperidin-3-yl)-1-oxo-2,3-dihydro-1H-isoindol-5-yl]piperidin-1-yl}methyl)-8-azabicyclo[3.2.1]octan-8-yl]phenyl}-1H-pyrrolo[2,3-b]pyridine-3-carbonyl)-2,4-difluorophenyl]-3-fluoropyrrolidine-1-sulfonamide]: 5 to 50 nM, 1 to 10 nM, 35 to 70% and > 70%.
Consider `O=C1CCC(N2Cc3cc(N4CCC(CC5CCN(c6ccc(-c7cnc8[nH]cc(C(=O)c9c(F)ccc(NS(=O)(=O)N%10CC[C@@H](F)C%10)c9F)c8c7)cc6)CC5)CC4)ccc3C2=O)C(=O)N1` (stereo partly drawn) [Compound 181, (3R)-N-[3-(5-{4-[4-({1-[2-(2,6-dioxopiperidin-3-yl)-1-oxo-2,3-dihydro-1H-isoindol-5-yl]piperidin-4-yl}methyl)piperidin-1-yl]phenyl}-1H-pyrrolo[2,3-b]pyridine-3-carbonyl)-2,4-difluorophenyl]-3-fluoropyrrolidine-1-sulfonamide], for which the Dmax in assay [1] (setting [4]) was < 35%; in assay [2] (setting [6]) it was 35 to 70%. The DC50 in assay [1] (read-out: BRaf V600E DC50; half maximal degradation, T-Rex 293 HA-BRAF V600E) is 50 to 500 nM; in assay [2] (read-out: BRaf G466V DC50; half maximal degradation, T-Rex 293 HA-BRAF G466V), 10 to 30 nM.
With `CN(CCN1CCN(c2ccc3c(c2)CN(C2CCC(=O)NC2=O)C3=O)CC1)[C@H]1C[C@@H](Oc2ccc(-c3cnc4[nH]cc(C(=O)c5c(F)ccc(NS(=O)(=O)N6CC[C@@H](F)C6)c5F)c4c3)cc2)C1` (stereo partly drawn) [Compound 182, (3R)-N-[2,4-difluoro-3-(5-{4-[(1s,3s)-3-[(2-{4-[2-(2,6-dioxopiperidin-3-yl)-1-oxo-2,3-dihydro-1H-isoindol-5-yl]piperazin-1-yl}ethyl)(methyl)amino]cyclobutoxy)phe-nyl}-1H-pyrrolo[2,3-b]pyridine-3-carbonyl)phenyl]-3-fluoropyrrolidine-1-sulfonamide], the values for the DC50 in assay [1] (setting [3]) and in assay [2] (setting [5]) were 50 to 500 nM and 1 to 10 nM, respectively. In addition, the Dmax in assay [1] (setting [4]) is 35 to 70%; in assay [2] (setting [6]), > 70%.
As to `CC1(N2Cc3cc(C4CCN(CC5CCN(c6ccc(-c7cnc8[nH]cc(C(=O)c9c(F)ccc(NS(=O)(=O)N%10CC[C@@H](F)C%10)c9F)c8c7)cc6)CC5)CC4)ccc3C2=O)CCC(=O)NC1=O` (stereo partly drawn) [Compound 183, (3R)-N-[2,4-difluoro-3-(5-{4-[4-({4-[2-(3-methyl-2,6-dioxopiperidin-3-yl)-1-oxo-2,3-dihydro-1H-isoindol-5-yl]piperidin-1-yl}methyl)piperidin-1-yl]phenyl}-1H-pyrrolo[2,3-b]pyridine-3-carbonyl)phenyl]-3-fluoropyrrolidine-1-sulfonamide], the figures for the DC50 in assay [1] (setting [3]) and in assay [2] (setting [5]) were 50 to 500 nM and > 30 nM, respectively. Further, the maximal degradation (Dmax) in assay [1] (setting [4]) was < 35%.
With `COc1cc(C2CCN(CC3CCN(c4ccc(-c5cnc6[nH]cc(C(=O)c7c(F)ccc(NS(=O)(=O)N8CC[C@@H](F)C8)c7F)c6c5)cc4)CC3)CC2)ccc1C(=O)NC1CCC(=O)NC1=O` (stereo partly drawn) [Compound 184, 4-(1-{[1-(4-{3-[2,6-difluoro-3-({[(3R)-3-fluoropyrrolidin-1-yl]sulfonyl}amino)benzoyl]-1H-pyrrolo[2,3-b]pyridin-5-yl}phenyl)piperidin-4-yl]methyl}piperidin-4-yl)-N-(2,6-dioxopiperidin-3-yl)-2-methoxybenzamide], the DC50 in assay [1] (setting [3]) lay in the range of 5 to 50 nM; in assay [2] (setting [5]) it was 1 to 10 nM. Also, the greatest degradation seen (Dmax) in assay [1] (setting [4]) is < 35%; in assay [2] (setting [6]) it was 35 to 70%.
The matching figures for `O=C1CCC(N2Cc3ccc(C4CCN(CC5CCN(c6ccc(-c7cnc8[nH]cc(C(=O)c9c(F)ccc(NS(=O)(=O)N%10CC[C@@H](F)C%10)c9F)c8c7)cc6)CC5)CC4)cc3C2=O)C(=O)N1` (stereo partly drawn) [Compound 185, (3R)-N-[3-(5-{4-[4-({4-[2-(2,6-dioxopiperidin-3-yl)-3-oxo-2,3-dihydro-1H-isoindol-5-yl]piperidin-1-yl}methyl)piperidin-1-yl]phenyl}-1H-pyrrolo[2,3-b]pyridine-3-carbonyl)-2,4-difluorophenyl]-3-fluoropyrrolidine-1-sulfonamide]: 5 to 50 nM, 1 to 10 nM, < 35% and > 70%.
The matching figures for `COc1cc([C@H](O)CCN2CCN(c3ccc(-c4cnc5[nH]cc(C(=O)c6c(F)ccc(NS(=O)(=O)N7CC[C@@H](F)C7)c6F)c5c4)cc3)CC2)cc2c1C(=O)N([C@H]1CCC(=O)NC1=O)C2` [Compound 186, (3R)-N-{3-[5-(4-{4-[(3R)-3-{2-[(3S)-2,6-dioxopiperidin-3-yl]-7-methoxy-1-oxo-2,3-dihydro-1H-isoindol-5-yl}-3-hydroxypropyl]piperazin-1-yl}phenyl)-1H-pyrrolo[2,3-b]pyridine-3-carbonyl]-2,4-difluorophenyl}-3-fluoropyrrolidine-1-sulfonamide]: 50 to 500 nM, 1 to 10 nM, 35 to 70% and > 70%.
